One data set deals with DhaA.WT (Rhodococcus rhodochrous, UniProt P0A3G2). Nature of the data set: Hydrolysis of Cl-alkanes, pH-indicator dye (phenol red) assay. The class given is biochemical. An excerpt: To study the effect of a point mutation on the activity of DhaA (WT or mutant) hydrolysis of Cl-alkanes, a pH-indicator dye system as described by Holloway et al. (1998) was employed.
A further data set concerns the target streptavidin (Streptomyces avidinii, UniProt P22629). Conditions: surface plasmon resonance; cited from earlier work. (In SPR one partner is held on a chip, and binding of the other changes the refractive index at the surface.)
Data set [1] relates to CHO-K1 cells.
Description: (§2) Fresh media was then added to cells, and the cells were returned to the CO2 incubator at 37° C. The level of fluorescence in cells in 96 well plates was measured on fluorescent plate reader CytoFluor II (Beckman) at Eex/Eem equal 480/520 nm and 540/575 nm for carboxyfluorescein-and carboxytetramethylrhodamine-modified substrates, respectively. Fluorescent images of the cells were taken on inverted epifluorescent microscope Axiovert-100 (Carl Zeiss) with filter sets appropriate for detection of FITC and carboxytetramethylrhodamine.
For a further data set, the target named is DhaA.H272F (Rhodococcus rhodochrous, UniProt P0A3G2, H272F). Nature of the data set: In vitro binding of Cl-alkanes with functional groups, SDS-PAGE with fluoroimager or HRP-streptavidin. As to conditions: dose dependent, 0.04-125 μM tested. The source says: (§1) Then the proteins were resolved on SDS-PAGE.
The test system of another data set is E. coli. The data set can be described thus: Permeability of plasma membrane of prokaryotic cells to substrates.
Data set [2] concerns CHO-K1 cells. The data set can be described thus: Permeability of cell membrane to substrates (uptake and wash-out).
Description: as §2
Data set [3] has as its target tetracysteine domain in a recombinant protein. Conditions: cited from earlier work.
The subject of data set [4] is CHO-K1 cells. The data set can be described thus: Toxicity of Cl-alkanes, CellTiter-Glo Luminescence Cell Viability Assay. The data set is classed as cell-based. As for the experimental part:
To study the toxicity of Cl-alkanes, CHO-K1 cells were plated in 96 well plates to a density of 5,000 cells per well. […] Viability of the cells was measured with CellTiter-Glo™ Luminescence Cell Viability Assay (Promega) according to the manufacturer's protocol. Generally, 100 μl of CellTiter-Glo™ reagent was added directly to the cells and the luminescence was recorded at 10 minutes using a DYNEX MLX microtiter plate luminometer.
On the technique in general: Cellular ATP, detected with luciferase, serves as a proxy for viable cell number.

Data set [5] deals with DhaA.H272 mutants, i.e. H272F/G/A/Q. Nature of the data set: In vitro binding and pretreatment blocking, SDS-PAGE. Set-up: species or system Rhodococcus rhodochrous.
Description: FIG. 10 illustrates that pretreatment of a mutant DhaA with a substrate, biotin-C10H21NO2—Cl, blocks binding of another substrate. DhaA.WT-lanes 1 and 2; DhaA.H272 mutants: F, lanes 3 and 4; G, lanes 5 and 6; A, lanes 7 and 8; and Q, lanes 9 and 10. Samples 2, 4, 6, 8, and 10 were pretreated with biotin-C10H21NO2—Cl.
as §1

The nature of data set [6]: Tethering of R.Luc-DhaA fusions to streptavidin-coated plates via biotin Cl-alkane. Conditions: pretreatment of R.Luc-connector-DhaA.H272F.
Description: Translated proteins were contacted with biotin-C10H21N1O2—Cl substrate at 25 μM (final concentration), for 60 minutes at room temperature. Unbound biotin-C10H21N1O2—Cl was removed by gel-filtration on Sephadex G-25 prepackaged columns (Amersham Biosciences). Collected fractions of R.Luc-connector-DhaA fusions were placed in SA-coated 96-well plate for 1 hour at room temperature, unbound proteins were washed out and luciferase activity was measured.

pIC50: −log10 of the molar value. Read-outs that look alike come from different tables or passages of the source.

For the compound `OCCCCCCCCCCCl` [1-Cl-alkane-10-decanol], the “initial rate of hydrolysis (IRH)” value on DhaA.WT (first 60 seconds after enzyme addition) was “much higher than the IRH of 1-Cl-decane”.

As to `O=C(O)CCCC[C@@H]1SC[C@@H]2NC(=O)N[C@@H]21` [biotin], the on-rate at streptavidin was 5e+06 M⁻¹ s⁻¹.

Consider `CCCCCl` [1-Cl-butane], for which the “activity of the wild-type enzyme with the substrate” value on DhaA.WT (0.1 mg/ml of enzyme and 10 mM substrate at pH 7.0-8.2) is listed as 5 units/mg of protein.

Turning to `O=C(CCCC[C@@H]1SC[C@@H]2NC(=O)N[C@@H]21)NCCOCCOCCCCCCCl` [biotin-C10H21NO2—Cl], the “permeability of plasma membrane of CHO-K1 cells” value (from here on “permeability … of CHO-K1 cells”) in the data set with CHO-K1 cells [1] is listed as “permeable”. Further, the “concentration at which binding to DhaA.H272F could be detected” value at DhaA.H272F came out at 0.2 µM. Further, the “permeability of plasma membrane of E. coli” value with E. coli was “permeable”.

As to `O=C(NCCOCCOCCCCCCCl)c1ccc(-c2c3ccc(=O)cc-3oc3cc(O)ccc23)c(C(=O)O)c1` [N-{2-[2-(6-Chlorohexyloxy)-ethoxyl-ethyl}-fluorescein-5-amide], the “permeability … of CHO-K1 cells” value in the data set with CHO-K1 cells [2] is “did not cross the plasma membrane”.

On to `O=C1OC2(c3ccccc31)c1ccc(O)c([As]3SCCS3)c1Oc1c2ccc(O)c1[As]1SCCS1` [FLASH, 4′,5′-bis(1,3,2-dithioarsolan-2-yl)fluorescein], for which the dissociation constant result in data set [3] was “nanomolar or lower”.

In the case of “N-{2-[2-(6-Chlorohexyloxy)-ethoxy]-ethyl}-tetramethylrhodamine-5-(and -6)-amide”, in the data set on CHO-K1 cells [4] (100 μM (the highest concentration tested)), the “toxicity after a 4 hour treatment” value is recorded as “no toxicity”. In the data set on CHO-K1 cells [4] (24 hour treatment), the maximum non-toxic concentration was 6.25 µM. In the data set on CHO-K1 cells [4] (24 hour treatment, read-out: IC50 of reduction of relative luminescence), the pIC50 was approximately 4.00. Moreover, in data set [5], the “binding to DhaA.H272F/G/A/Q” value was “bound”. Also, in the data set with CHO-K1 cells [2], the “permeability … of CHO-K1 cells” value was “permeable”. Besides, in [6], the “decrease of efficiency of capturing by pretreatment with non-biotinylated substrate” value is reported as “about 80%”. In addition, the “permeability of plasma membrane of E. coli” value in the data set with E. coli is reported as “permeable”.

Broadly, the pIC50 is the IC50 on a negative log10 scale, so that one unit is a factor of ten.
